The results in this text go back to paper PMC6977461 (Chemical Science, 2019).

Molecules are shown by their SMILES. A value given as a limit tells only on which side of the number the result lay.

Data set [1] deals with T1, mouse GLP-1 receptor (Mus musculus, UniProt O35659).
T1 construct: βTC6 cells which express GLP-1R endogenously; host or cells: βTC6 cells
T1 sequence (O35659 22-463): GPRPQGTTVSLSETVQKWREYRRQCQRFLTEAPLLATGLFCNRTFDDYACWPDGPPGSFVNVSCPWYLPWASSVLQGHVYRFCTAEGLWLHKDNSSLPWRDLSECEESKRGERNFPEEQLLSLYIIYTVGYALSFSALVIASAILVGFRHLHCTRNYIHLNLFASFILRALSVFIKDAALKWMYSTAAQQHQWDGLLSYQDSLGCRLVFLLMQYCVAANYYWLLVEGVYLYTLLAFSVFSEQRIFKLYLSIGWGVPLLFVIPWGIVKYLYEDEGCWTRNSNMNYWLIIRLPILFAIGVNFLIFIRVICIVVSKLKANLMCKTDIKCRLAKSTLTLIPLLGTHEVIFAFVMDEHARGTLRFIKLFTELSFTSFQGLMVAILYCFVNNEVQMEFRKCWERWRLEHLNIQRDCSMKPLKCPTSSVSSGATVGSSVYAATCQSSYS
The experiment in a line: cAMP production in βTC6 cells expressing GLP-1R endogenously (Method C2). Type of data set: cell-based. The following applies: for loss in potency relative to 3 (fold): figures for 6-8 match the βTC6 EC50 values of Table S1; for Potency (%), Table S1: from EC50 in βTC6 cAMP assay, footnote: compare to GLP-1-NH2 (2); for EC50: read-out: EC50 (GLP-1R potency), Table S1. A general note: Cyclic AMP is a second messenger, typically raised through Gs and lowered through Gi signalling.

Data set [2] is described as follows: mouse plasma degradation assay (Methods MP1-MP3). Type of data set: in vitro ADME. The following applies: mouse plasma diluted 1/1 with PBS; mouse plasma/PBS pH 7.4 (1/1), 5 µM, 37 °C, acetonitrile quench, LC-MS extracted ion chromatogram; MP1 for 2-8, MP2 for 9-11, MP3 for 12-14; mean, n = 3; read-out: Mouse plasma t1/2 (converted). As for the experimental part: The oligomer was then diluted 1/50 with a solution of plasma/PBS pH 7.4 (1/1) to afford a final concentration of 5μM and incubated at 37°C. […] (t = 0 min was determined using the reaction without plasma). The samples were frozen at -80°C before analysis. […] The supernatant was analyzed by LC-MS. The time course of oligomer degradation was determined by integrating the area of the peak in the extracted ion chromatogram. […] The oligomer was then diluted 1/50 with a solution of plasma/PBS pH 7.4 (1/1) to afford a final concentration of 5μM and incubated at 37°C. […] The oligomer was then diluted 1/50 with a solution of plasma/PBS pH 7.4 (1/1) to afford a final concentration of 5μM and incubated at 37°C. […] Animals. […] A standard chow diet (RM1 (E) 801492, SDS) and tap water were provided ad libitum. All animal protocols done by Physiogenex S.A.S were reviewed and approved by the local (Comité […] national ([…]

Data set [3] has as its target GLP-1R (Homo sapiens, UniProt P43220). Description: cAMP production functional assay in HEK293 cells transfected with GLP-1R (Method C1). More on the design: host or cells: HEK-293T. Type of data set: cell-based. The following applies: for EC50: HEK-293T cells exogenously expressing human GLP-1R, cAMP by HTRF, 10 min at 37 °C, Method C1, mean, n = 3 (2: n = 6), read-out: EC50 (GLP-1R potency); for Potency (%), percentage of potency compared to GLP-1-NH2: from EC50 in HEK293 GLP-1R cAMP assay.
Method:  HEK-293T cells (Multispan inc., lot#.DC1267-062017) were suspended in cell culture media
(DMEM 1X + GlutaMAX (Gibco 31966-021)) complemented with FBS 10% (Sigma Aldrich
 βTC6 cells were suspended in HBSS buffer (Invitrogen) complemented with 20 mM HEPES (pH
In vitro pharmacology on HEK-293T cells (EC50: Method C1)
cells (Multispan inc., lot#.DC1267-062017) was determined by measuring their effects on cAMP
production using the HTRF detection method (performed by UREkA SARL). The cells were distributed
in 384-well microplates at a density of 1.0x10^4 cells/well. Stock solutions of the test compounds or the
reference agonist were prepared at a concentration of 1 mM in DMSO. Then, compounds to be tested
were diluted in cell culture media and transferred to the plate containing the cells to reach final assay

Data set [4] addresses T1, mouse GLP-1 receptor. Description: radioligand binding assay, [125I]GLP-1(7-36), βTC6 cell membrane homogenates.
Method: In vitro pharmacology: Affinity (IC50)
and 1% BSA. […] Following
incubation, the samples are filtered rapidly under vacuum through glass fiber filters (GF/B, Packard)
presoaked with 0.3% PEI and rinsed several times with an ice-cold buffer containing 50 mM Tris-HCl
and 500 mM NaCl using a 96-sample cell harvester (Unifilter, Packard). The filters are dried then
counted for radioactivity in a scintillation counter (Topcount, Packard) using a scintillation cocktail
(Microscint 0, Packard). The results are expressed as a percent inhibition of the control radioligand
at several concentrations to obtain a competition curve from which its IC50 is calculated using

Sequence of GLP-1R (P43220 24-463): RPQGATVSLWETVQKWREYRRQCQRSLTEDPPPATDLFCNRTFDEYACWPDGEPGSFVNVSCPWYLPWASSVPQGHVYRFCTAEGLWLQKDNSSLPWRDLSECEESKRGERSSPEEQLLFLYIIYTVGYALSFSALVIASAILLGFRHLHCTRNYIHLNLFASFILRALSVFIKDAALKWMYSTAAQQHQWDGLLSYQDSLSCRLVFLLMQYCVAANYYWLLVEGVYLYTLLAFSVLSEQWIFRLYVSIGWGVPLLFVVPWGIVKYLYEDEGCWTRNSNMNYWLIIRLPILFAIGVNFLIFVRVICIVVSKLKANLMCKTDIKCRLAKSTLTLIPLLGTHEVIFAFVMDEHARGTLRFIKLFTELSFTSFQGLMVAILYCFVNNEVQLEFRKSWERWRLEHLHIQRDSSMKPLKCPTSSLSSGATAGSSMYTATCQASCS

As for `CC[C@H](C)[C@H](NC(=O)[C@H](Cc1ccccc1)NC(=O)[C@H](CCC(=O)O)NC(=O)[C@H](CCCCN)NC(=O)[C@H](C)NC(=O)[C@H](C)NC(=O)[C@H](CCC(N)=O)NC(=O)CNC(=O)[C@H](CCC(=O)O)NC(=O)[C@H](CC(C)C)NC(=O)[C@H](Cc1ccc(O)cc1)NC(=O)[C@H](CO)NC(=O)[C@H](CO)NC(=O)[C@@H](NC(=O)[C@H](CC(=O)O)NC(=O)[C@H](CO)NC(=O)[C@@H](NC(=O)[C@H](Cc1ccccc1)NC(=O)[C@@H](NC(=O)CNC(=O)[C@H](CCC(=O)O)NC(=O)NC[C@@H](NC(=O)[C@@H](N)Cc1c[nH]cn1)C(C)C)[C@@H](C)O)[C@@H](C)O)C(C)C)C(=O)N[C@@H](C)C(=O)N[C@@H](Cc1c[nH]c2ccccc12)C(=O)N[C@@H](CC(C)C)C(=O)N[C@H](C(=O)N[C@@H](CCCCN)C(=O)NCC(=O)N[C@@H](CCCNC(=N)N)C(=O)NCC(N)=O)C(C)C` [compound 8], in data set [1], the “loss in potency relative to 3 (fold)” value is reported as above 1000 fold; the “Potency (%), Table S1” value was below 0.01%; the EC50 is above 10000 nM. Besides, in data set [2], the half-life at 5 µM was 18 min. Further, the 50% effective concentration (EC50) in data set [3] was 2.12 nM.
As for `CC[C@H](C)[C@H](NC(=O)[C@H](Cc1ccccc1)NC(=O)[C@H](CCC(=O)O)NC(=O)[C@H](CCCCN)NC(=O)[C@H](C)NC(=O)[C@H](C)NC(=O)[C@H](CCC(N)=O)NC(=O)CNC(=O)[C@H](CCC(=O)O)NC(=O)[C@H](CC(C)C)NC(=O)[C@H](Cc1ccc(O)cc1)NC(=O)[C@H](CO)NC(=O)[C@H](CO)NC(=O)[C@@H](NC(=O)[C@H](CC(=O)O)NC(=O)[C@H](CO)NC(=O)[C@@H](NC(=O)[C@H](Cc1ccccc1)NC(=O)[C@@H](NC(=O)CNC(=O)[C@H](CCC(=O)O)NC(=O)NC(C)CNC(=O)[C@@H](N)Cc1c[nH]cn1)[C@@H](C)O)[C@@H](C)O)C(C)C)C(=O)N[C@@H](C)C(=O)N[C@@H](Cc1c[nH]c2ccccc12)C(=O)N[C@@H](CC(C)C)C(=O)N[C@H](C(=O)N[C@@H](CCCCN)C(=O)NCC(=O)N[C@@H](CCCNC(=N)N)C(=O)NCC(N)=O)C(C)C` (some centres unmarked) [compound 6], in data set [1], the “loss in potency relative to 3 (fold)” value worked out at 24 fold; the “Potency (%), Table S1” value was found to be 3%; the concentration for a half-maximal effect (EC50) was determined as 3.4 nM. Moreover, the half-life at 5 µM in data set [2] is 22.2 min. Further, in data set [3], the EC50 was determined as 0.012 nM and the “Potency (%), percentage of potency compared to GLP-1-NH2” value (shortened to “Potency (%), percentage of potency”) is 25%.
`CC[C@H](C)[C@H](NC(=O)[C@H](Cc1ccccc1)NC(=O)[C@H](CCC(=O)O)NC(=O)[C@H](CCCCN)NC(=O)[C@H](C)NC(=O)[C@H](C)NC(=O)[C@H](CCC(N)=O)NC(=O)CNC(=O)[C@H](CCC(=O)O)NC(=O)[C@H](CC(C)C)NC(=O)[C@H](Cc1ccc(O)cc1)NC(=O)[C@H](CO)NC(=O)[C@H](CO)NC(=O)[C@@H](NC(=O)[C@H](CC(=O)O)NC(=O)[C@H](CO)NC(=O)[C@@H](NC(=O)[C@H](Cc1ccccc1)NC(=O)[C@@H](NC(=O)CNC(=O)[C@H](CCC(=O)O)NC(=O)NCCNC(=O)[C@@H](N)Cc1c[nH]cn1)[C@@H](C)O)[C@@H](C)O)C(C)C)C(=O)N[C@@H](C)C(=O)N[C@@H](Cc1c[nH]c2ccccc12)C(=O)N[C@@H](CC(C)C)C(=O)N[C@H](C(=O)N[C@@H](CCCCN)C(=O)NCC(=O)N[C@@H](CCCNC(=N)N)C(=O)NCC(N)=O)C(C)C` [compound 7]: in data set [1], the “loss in potency relative to 3 (fold)” value turned out to be 5 fold; the “Potency (%), Table S1” value is reported as 13%; the EC50 turned out to be 0.8 nM. Also, the half-life at 5 µM in data set [2] was 13.2 min. Also, in data set [3], the EC50 worked out at 0.0053 nM and the “Potency (%), percentage of potency” value worked out at 59%.
With `CC[C@H](C)[C@H](NC(=O)[C@H](Cc1ccccc1)NC(=O)[C@H](CCC(=O)O)NC(=O)[C@H](CCCCN)NC(=O)[C@H](C)NC(=O)[C@H](C)NC(=O)[C@H](CCC(N)=O)NC(=O)CNC(=O)[C@H](CCC(=O)O)NC(=O)[C@H](CC(C)C)NC(=O)[C@H](Cc1ccc(O)cc1)NC(=O)[C@H](CO)NC(=O)[C@H](CO)NC(=O)[C@@H](NC(=O)[C@H](CC(=O)O)NC(=O)[C@H](CO)NC(=O)[C@@H](NC(=O)[C@H](Cc1ccccc1)NC(=O)[C@@H](NC(=O)CNC(=O)[C@H](CCC(=O)O)NC(=O)OC[C@H](C)NC(=O)[C@@H](N)Cc1c[nH]cn1)[C@@H](C)O)[C@@H](C)O)C(C)C)C(=O)N[C@@H](C)C(=O)N[C@@H](Cc1c[nH]c2ccccc12)C(=O)N[C@@H](CC(C)C)C(=O)N[C@H](C(=O)N[C@@H](CCCCN)C(=O)NCC(=O)N[C@@H](CCCNC(=N)N)C(=O)NCC(N)=O)C(C)C` [compound 5], in data set [1], the “Potency (%), Table S1” value is 13% and the 50% effective concentration (EC50) turned out to be 0.8 nM. Moreover, in data set [2], the half-life at 5 µM was 12.6 min.
As for `CC[C@H](C)[C@H](NC(=O)[C@H](Cc1ccccc1)NC(=O)[C@H](CCC(=O)O)NC(=O)[C@H](CCCCN)NC(=O)[C@H](C)NC(=O)[C@H](C)NC(=O)[C@H](CCC(N)=O)NC(=O)CNC(=O)[C@H](CCC(=O)O)NC(=O)[C@H](CC(C)C)NC(=O)[C@H](Cc1ccc(O)cc1)NC(=O)[C@H](CO)NC(=O)[C@H](CO)NC(=O)[C@@H](NC(=O)[C@H](CC(=O)O)NC(=O)[C@H](CO)NC(=O)[C@@H](NC(=O)[C@H](Cc1ccccc1)NC(=O)[C@@H](NC(=O)CNC(=O)[C@H](CCC(=O)O)NC(=O)NC[C@H](C)NC(=O)[C@@H](N)Cc1c[nH]cn1)[C@@H](C)O)[C@@H](C)O)C(C)C)C(=O)N[C@@H](C)C(=O)N[C@@H](Cc1c[nH]c2ccccc12)C(=O)N[C@@H](CC(C)C)C(=O)N[C@H](C(=O)N[C@@H](CCCCN)C(=O)NCC(=O)N[C@@H](CCCNC(=N)N)C(=O)NCC(N)=O)C(C)C` [compound 3], in data set [1], the “Potency (%), Table S1” value is 70% and the concentration giving a half-maximal response (EC50) was found to be 0.14 nM. Also, the half-inhibitory concentration (IC50) in data set [4] worked out at 32 nM. Besides, in data set [2], the half-life at 5 µM is 14.4 min. Besides, in data set [3], the half-maximal effective concentration (EC50) worked out at 0.0027 nM and the “Potency (%), percentage of potency” value turned out to be 117%.

By EC50 is commonly meant the concentration needed to bring the measured effect to its halfway point. A word on the IC50: it is the midpoint of a concentration-inhibition curve. Lower therefore signals greater potency in that assay.
